In publication PMC12173412 (PLOS Neglected Tropical Diseases, 2025):

Key:
[1] = target: Odor Binding Protein-like (OBPL); design: species or system Haemaphysalis longicornis
[2] = target: Niemann-Pick type C2 (NPC2); assay type: binding, Haemaphysalis longicornis
[3] = target: Niemann-Pick type C2 (NPC2); assay type: binding, Haemaphysalis longicornis; remark: listed apart in the source
[4] = target: Odor Binding Protein-like (OBPL); design: species or system Haemaphysalis longicornis; remark: listed apart in the source

Row | SMILES | Kd [1] [µM] | Kd [2] [µM] | Ki [3] [µM] | Ki [4] [µM]
1 | c1ccc(Nc2cccc3ccccc23)cc1 [1-NPN] | 2.56 | 3.18 | – | –
2 | Cc1c[nH]c2ccccc12 [3-methylindole] | – | – | 15.4 | 4.19
3 | c1ccc2[nH]ccc2c1 [indole] | – | – | 10.3 | 2.26
